# Measured values: patent publication US20240150321A1, “PYRAZOLYLSULFONAMIDE COMPOUNDS AND THEIR USE IN THERAPY” (HOTSPOT THERAPEUTICS, INC., priority 2022, published 2024)
# Like-named read-outs stand apart in the source and are kept apart here.
# How the values were obtained:
# Avi-tagged FL MALT-1 = Avi-tagged FL MALT-1 (Homo sapiens (Human), UniProt Q9UDY8); experiment: MALT-1 Fluorogenic Peptide Cleavage Assay (MALT1 inhibition assay); type: biochemical; settings: Ac-LRSR-AMC peptide substrate, 30 min pre-incubation, 90 min reaction at room temperature
# Method: Inhibition of MALT1 activity by the presence of small molecules was evaluated using MALT-1 Fluorogenic Peptide Cleavage Assay. The assay utilizes a quenched AMC-labelled peptide that contains the MALT-1 recognition sequence and cleavage site (LRSR). MALT-1 mediated cleavage of the peptide relieves the quenching and leads to an increase in fluorescence at excitation (342 nm) and emission (441 nm).
# The following reagents were obtained commercially and used to prepare standard reagent formulations as further described below: N-2-hydroxyethylpiperazine-N-2-ethane sulfonic acid (HEPES) (1 M, pH 7.5, stored at 4° C.), sodium citrate (stored at RT), tris(2-carboxyethyl) phosphine hydrochloride (T-CEP) (500 mM, stored at −20° C.), ethylenediaminetetraacetic acid (EDTA) (500 mM, stored at RT), dimethylsulfoxide (DMSO, stored at RT), 3-[(3-cholamido-propyl)dimethylammonio]-1-propane sulphate (CHAPS) (stored at RT), dimethylsulfoxide (DMSO), DMSO (Fisher Scientific, stored at RT), Avi-tagged FL MALT-1 (Pharmaron, stored at −70° C.), Ac-LRSR-AMC Peptide (SM Biochemicals, stored at −20° C.)., and ultrapure water (MILLLI-Q©).
# The standard reagent formulations used in this assay were prepared and stored as follows. A 1.1 M solution of sodium citrate (161.3 g, 500 mL) was prepared and stored at room temperature. A 10% (w/v) CHAPS solution (2.0 g, 20 mL) was prepared and stored at 4° C. A 500 mM HEPES solution having pH of 6.89 was prepared from 200 mL of a 1 M HEPES solution having a pH of 7.5 using concentrated hydrochloric acid and brought to a final volume of 400 mL with MILLI-Q© H2O. The substrate, 10 mM Ac-LRSR-AMC Peptide, was prepared (10 mg, 1.370 mL DMSO) and stored at −20° C.
# Compounds were plated to provide a 2% DMSO final concentration using a ProxiPlate-384 Plus F Black 384-shallow well microplate. The assay-ready plates were equilibrated to room temperature. A reaction buffer (30 mL total volume) was prepared by combining HEPES (pH 6.89, 25 mM, 1.5 mL), sodium citrate (660 mM, 18.0 mL), T-CEP (1 mM, 0.06 mL), EDTA ([…], 0.06 mL), CHAPS (0.05%, 0.15 mL), DMSO (2%, 0.6 mL), and MILLI-Q© H2O (10.23 mL; 9.63 mL when backfilled to 2% DMSO) followed by thorough mixing. DMSO was added only when compound plates had not been DMSO-backfilled to 2%.
# MALT-1 was thawed and kept on ice. Peptide substrate was thawed on the bench under ambient conditions. A MALT-1 enzyme working stock was prepared from Avi-tagged FL MALT-1 (40 nM in a prepared reagent volume of 16.5 μL) and the reaction buffer (13.0 mL). MALT1 working stock (5 μL) was added to each well of the microplate. MALT-1 was pre-incubated with compounds for 30 minutes at room temperature.
# Two substrate working stocks (Km and 10×Km) were prepared. The 1×Km substrate was prepared from Ac-LRSR-AMC Peptide (50 μM in a prepared reagent volume of 35.0 μL) and the reaction buffer (6.965 mL). The 10×Km substrate was prepared from Ac-LRSR-AMC Peptide (280 μM in a prepared reagent volume of 196.0 μL) and the reaction buffer (6.804 mL). The reaction was initiated by the addition of substrate working stock (5 μL, 50 μM) to Km plates and the addition of substrate working stock (5 μL 280 μM) to 10×Km plates. The plates were covered and incubated on the bench at room temperature for 90 minutes.
# Fluorescence intensity was determined using a CLARIOstar microplate reader (BMG LABTECH) using the optimised AMC mode. Before taking readings, a 70% gain was applied on the neutral control well. Compound data were normalised to % Inhibition and used to plot sigmoidal concentration response curves to yield various parameters including IC50.
# [1] = tested on: NF-kB reporter in Jurkat cells; experiment: NF-kB reporter assay in Jurkat cells stimulated with aCD3/aCD28/PMA; type: cell-based; settings: Jurkat cells, 1 hr compound pre-incubation, aCD3/aCD28/PMA stimulation 4 hr, One-Glo readout, read-out: NF-kB Reporter Assay IC50
# Method: Jurkat cells were maintained in complete RPMI 1640 media supplemented with 10% FBS. Prior to the assay, 120 nL of the serial diluted compound was added in each well of 384-well flat bottom white plate (Corning #3570) by using liquid handler Echo550. Jurkat cells were harvested by centrifugation at 120 g for 10 min and resuspended in fresh RPMI 1640 media without serum. […] (25,000 cells) were seeded in each well of 384-well plate containing compound. After 1 hr incubation at 37° C. in a 5% CO2 incubator, […] of diluted aCD3/aCD28/PMA (final concentration at […] and […], respectively) in RPMI 1640 without serum were added to each well. After incubation at 37° C. in 5% CO2 for 4 hr, […] of One-Glo reagent (Promega #E6120) was added into each well. The plate was left at room temperature for 5 min and the signal was measured on EnVision (PerkinElmer).
# Compounds in which an IC50 was not measured are designated as “N/A”.
# Sequence of Avi-tagged FL MALT-1 (Q9UDY8 whole entry): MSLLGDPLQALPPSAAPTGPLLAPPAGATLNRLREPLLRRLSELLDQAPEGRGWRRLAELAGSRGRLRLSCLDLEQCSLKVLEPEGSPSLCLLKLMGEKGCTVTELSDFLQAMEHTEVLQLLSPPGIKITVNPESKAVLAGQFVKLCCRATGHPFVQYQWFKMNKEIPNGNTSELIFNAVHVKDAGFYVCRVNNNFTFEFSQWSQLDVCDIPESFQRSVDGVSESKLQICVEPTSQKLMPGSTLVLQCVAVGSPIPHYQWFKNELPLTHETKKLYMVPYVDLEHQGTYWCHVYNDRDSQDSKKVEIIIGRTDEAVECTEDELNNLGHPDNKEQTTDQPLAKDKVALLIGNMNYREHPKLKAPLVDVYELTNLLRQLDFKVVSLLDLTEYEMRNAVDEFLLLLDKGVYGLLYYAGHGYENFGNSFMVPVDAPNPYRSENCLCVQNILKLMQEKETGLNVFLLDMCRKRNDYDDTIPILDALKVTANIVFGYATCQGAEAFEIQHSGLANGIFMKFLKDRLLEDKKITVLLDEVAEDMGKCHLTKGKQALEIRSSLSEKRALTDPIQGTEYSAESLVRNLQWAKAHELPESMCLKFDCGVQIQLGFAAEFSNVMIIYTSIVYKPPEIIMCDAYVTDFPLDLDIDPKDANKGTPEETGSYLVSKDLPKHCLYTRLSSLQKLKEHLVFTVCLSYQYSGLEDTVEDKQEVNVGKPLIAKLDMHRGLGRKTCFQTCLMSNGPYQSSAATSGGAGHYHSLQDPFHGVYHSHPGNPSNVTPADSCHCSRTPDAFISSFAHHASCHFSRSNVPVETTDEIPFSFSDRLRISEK
SMILES,IC50 (Avi-tagged FL MALT-1) [nM],IC50 ([1]; Homo sapiens) [nM],IC50 [1] [nM]
"Cn1ncc2cccc(NS(=O)(=O)c3cnn(-c4cc(C5(F)CC(F)C5)ccn4)c3)c21 (stereo not shown) [Compound I-112, 1-(4-(1,3-difluorocyclobutyl)pyridin-2-yl)-N-(1-methyl-1H-indazol-7-yl)-1H-pyrazole-4-sulfonamide]",> 2500,< 400,
COc1ncc2cnn(C)c2c1NS(=O)(=O)c1cnn(-c2cc(N3CC(C)(C)C3)ccn2)c1 [Compound I-385],> 2500,< 400,
COc1ccc2cnn(C)c2c1NS(=O)(=O)c1cnn(-c2cc(C(F)(F)F)nn2C)c1 [Compound I-242],> 2500,1000 to 2500,
"Cn1ncc2cccc(NS(=O)(=O)c3cnn(-c4cc(N5CC6(CC6)C5)ccn4)c3)c21 [Compound I-368, 1-(4-{5-azaspiro[2.3]hexan-5-yl}pyridin-2-yl)-N-(1-methylindazol-7-yl)pyrazole-4-sulfonamide]",> 2500,< 400,
"COC1(c2ccnc(-n3cc(S(=O)(=O)Nc4cccc5cnn(C)c45)cn3)c2)CC(C)C1 (stereo not shown) [Compound I-363, 1-(4-(1-methoxy-3-methylcyclobutyl)pyridin-2-yl)-N-(1-methyl-1H-indazol-7-yl)-1H-pyrazole-4-sulfonamide]",> 2500,,< 400
"COc1ccc2cnn(C)c2c1NS(=O)(=O)c1cnn(-c2cnn3c2COCCC3)c1 [Compound I-455, N-(6-methoxy-1-methylindazol-7-yl)-1-{4H,6H,7H,8H-pyrazolo[3,2-c][1,4]oxazepin-3-yl}pyrazole-4-sulfonamide]",> 2500,1000 to 2500,
COc1ccc2cnn(C)c2c1NS(=O)(=O)c1cnn(-c2cc(N3CC4CC(C4)C3)ccn2)c1 [Compound I-404],> 2500,< 400,
"Cn1ncc2cccc(NS(=O)(=O)c3cnn(-c4cc(C5=CCOCC5)ccn4)c3)c21 [Compound I-119, 1-(4-(3,6-Dihydro-2H-Pyran-4-yl)Pyridin-2-yl)-N-(1-Methyl-1H-Indazol-7-yl)-1H-Pyrazole-4-Sulfonamide]",> 2500,< 400,
"Cn1ncc2cccc(NS(=O)(=O)c3cnn(-c4cc(C5CCOC5)ccn4)c3)c21 (stereo not shown) [Compound I-118, N-(1-methyl-1H-indazol-7-yl)-1-(4-(tetrahydrofuran-3-yl)pyridin-2-yl)-1H-pyrazole-4-sulfonamide]",> 2500,< 400,
"Cc1ncn2cccc(NS(=O)(=O)c3cnn(-c4cc(C(F)(F)F)ccn4)c3)c12 [Compound I-95, N-(1-methylimidazo[1,5-a]pyridin-8-yl)-1-(4-(trifluoromethyl)pyridin-2-yl)-1H-pyrazole-4-sulfonamide]",> 2500,< 400,
"CCC(O)c1ccnc(-n2cc(S(=O)(=O)Nc3c(OC)ccc4cnn(C)c34)cn2)c1 (single isomer, unassigned) [Compound I-281, 1-(4-(1-hydroxypropyl)pyridin-2-yl)-N-(6-methoxy-1-methyl-1H-indazol-7-yl)-1H-pyrazole-4-sulfonamide]",400 to 1000,< 400,
C[C@H](O)c1ccnc(-n2cc(S(=O)(=O)Nc3cccc4cnn(C)c34)cn2)c1 [Compound I-270],> 2500,< 400,
"CC1CC(F)(c2ccnc(-n3cc(S(=O)(=O)Nc4cccc5cnn(C)c45)cn3)c2)C1 (stereo not shown) [Compound I-395, 1-(4-(1-fluoro-3-methylcyclobutyl)pyridin-2-yl)-N-(1-methyl-1H-indazol-7-yl)-1H-pyrazole-4-sulfonamide]",> 2500,,< 400
"Cc1ccnc(-n2cc(S(=O)(=O)Nc3cccc4[nH]nc(C)c34)cn2)c1 [Compound I-63, N-(3-Methyl-1H-Indazol-4-yl)-1-(4-Methylpyridin-2-yl)-1H-Pyrazole-4-Sulfonamide]",> 2500,< 400,
"Cn1ncc2cccc(NS(=O)(=O)c3cnn(-c4cc(C5(O)CCOC5)ccn4)c3)c21 (stereo in doubt) [Compound I-310, (S)-1-(4-(3-hydroxytetrahydrofuran-3-yl)pyridin-2-yl)-N-(1-methyl-1H-indazol-7-yl)-1H-pyrazole-4-sulfonamide]",> 2500,< 400,

# The next lines start with the values.
IC50 (Avi-tagged FL MALT-1) [nM],IC50 ([1]; Homo sapiens) [nM],IC50 [1] [nM],SMILES
1000 to 2500,400 to 1000,,"COc1ccc2cnn(C)c2c1NS(=O)(=O)c1cnn(-c2cnn3c2COCC3)c1 [Compound I-474, N-(6-methoxy-1-methylindazol-7-yl)-1-{4H,6H,7H-pyrazolo[3,2-c][1,4]oxazin-3-yl}pyrazole-4-sulfonamide]"
> 2500,< 400,,COc1ncc2cnn(C)c2c1NS(=O)(=O)c1cnn(-c2cc(N3CC4CC4C3)ccn2)c1 (stereo not shown) [Compound I-405]
> 2500,< 400,,"Cn1ncc2cccc(NS(=O)(=O)c3cnn(-c4cc(N5CC[C@@H](F)C5)ccn4)c3)c21 [Compound I-430, 1-{4-[(3R)-3-fluoropyrrolidin-1-yl]pyridin-2-yl}-N-(1-methylindazol-7-yl)pyrazole-4-sulfonamide]"
> 2500,< 400,,Cn1ncc2cccc(NS(=O)(=O)c3cnn(-c4cc(N5CC(C)(C)OC5=O)ccn4)c3)c21 [Compound I-283]
> 2500,< 400,,CCC(O)(CC)c1ccnc(-n2cc(S(=O)(=O)Nc3cccc4cnn(C)c34)cn2)c1 [Compound I-276]
≤ 400,< 400,,"[2H]C([2H])([2H])c1ccc2cnn(C)c2c1NS(=O)(=O)c1cnn(-c2cc(C(F)(F)F)ccn2)c1 [Compound I-71, N-(1-Methyl-6-(Methyl-D3)-1H-Indazol-7-yl)-1-(4-(Trifluoromethyl)Pyridin-2-yl)-1H-Pyrazole-4-Sulfonamide]"
400 to 1000,< 400,,"COCC(C)(C)c1ccnc(-n2cc(S(=O)(=O)Nc3c(OC)ccc4cnn(C)c34)cn2)c1 [Compound I-482, N-(6-methoxy-1-methyl-1H-indazol-7-yl)-1-(4-(1-methoxy-2-methylpropan-2-yl)pyridin-2-yl)-1H-pyrazole-4-sulfonamide]"
1000 to 2500,< 400,,"COc1ccc2cnn(C)c2c1NS(=O)(=O)c1cnn(-c2cc(N3CC(F)(F)C3)ccn2)c1 [Compound I-443, 1-[4-(3,3-difluoroazetidin-1-yl)pyridin-2-yl]-N-(6-methoxy-1-methylindazol-7-yl)pyrazole-4-sulfonamide]"
